Experimental data from patent US9969742B2, “Imidazotriazinone compounds” (Ironwood Pharmaceuticals, Inc., priority 2012, dated 2018).
Like-named read-outs stand apart in the source and are kept apart here.

What was measured:
Format in all cases: biochemical
PDE9A2 = molecular target: T1, PDE9A2 (Homo sapiens, UniProt O76083); assay: Phosphodiesterase enzyme screening assay, PDE9A2
T1 construct: purchased Reaction Biology Corporation, Malvern, Pa
Summary of the method: (§1)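 Enzyme activity is measured as conversion of fluorescent cGMP (4.0 μM) to 5′-GMP after 1 h at R.T. in pH 7.5 HEPES/MgCl2/DTT buffer. Product is separated from substrate by microfluidic mobility shift, and inhibition is derived by comparison with control wells.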

PDE1A = molecular target: T2, PDE1A (Homo sapiens, UniProt P54750); assay: Phosphodiesterase enzyme screening assay, PDE1A
T2 construct: purchased Reaction Biology Corporation, Malvern, Pa
Summary of the method: as §1

PDE1B = molecular target: T3, PDE1B (Homo sapiens, UniProt Q01064); assay: Phosphodiesterase enzyme screening assay, PDE1B
T3 construct: purchased Reaction Biology Corporation, Malvern, Pa
Summary of the method: as §1

[1] = Table 1, 10 concentrations, 4.0 μM cGMP substrate, 1 hour at R.T., read-out: Band (PDE9A2 IC50)
[2] = Table 1, ratio of IC50 values, value greater than 1 indicates greater selectivity for PDE9A2
[3] = 4.0 μM cGMP substrate, 1 hour at R.T., read-out: Band (PDE9A2 IC50)
[4] = ratio of IC50 values PDE1A / PDE9A2, value greater than 1 = greater selectivity for PDE9A2
[5] = ratio of IC50 values PDE1B / PDE9A2, value greater than 1 = greater selectivity for PDE9A2

T2 sequence (P54750 whole entry): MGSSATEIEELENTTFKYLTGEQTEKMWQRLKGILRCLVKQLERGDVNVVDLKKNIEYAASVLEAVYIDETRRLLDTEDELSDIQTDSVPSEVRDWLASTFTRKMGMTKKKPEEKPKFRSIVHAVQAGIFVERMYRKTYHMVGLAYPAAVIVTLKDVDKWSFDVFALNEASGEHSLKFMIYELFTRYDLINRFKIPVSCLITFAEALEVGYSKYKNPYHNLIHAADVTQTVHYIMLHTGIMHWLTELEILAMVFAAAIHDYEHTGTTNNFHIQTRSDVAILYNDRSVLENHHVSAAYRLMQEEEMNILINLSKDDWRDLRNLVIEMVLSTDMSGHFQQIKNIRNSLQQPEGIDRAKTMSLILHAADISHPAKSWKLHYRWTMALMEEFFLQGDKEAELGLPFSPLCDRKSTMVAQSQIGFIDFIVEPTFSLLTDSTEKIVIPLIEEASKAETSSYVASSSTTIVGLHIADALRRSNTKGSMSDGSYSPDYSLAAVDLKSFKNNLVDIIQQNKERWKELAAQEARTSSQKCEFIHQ
T3 sequence (Q01064 whole entry): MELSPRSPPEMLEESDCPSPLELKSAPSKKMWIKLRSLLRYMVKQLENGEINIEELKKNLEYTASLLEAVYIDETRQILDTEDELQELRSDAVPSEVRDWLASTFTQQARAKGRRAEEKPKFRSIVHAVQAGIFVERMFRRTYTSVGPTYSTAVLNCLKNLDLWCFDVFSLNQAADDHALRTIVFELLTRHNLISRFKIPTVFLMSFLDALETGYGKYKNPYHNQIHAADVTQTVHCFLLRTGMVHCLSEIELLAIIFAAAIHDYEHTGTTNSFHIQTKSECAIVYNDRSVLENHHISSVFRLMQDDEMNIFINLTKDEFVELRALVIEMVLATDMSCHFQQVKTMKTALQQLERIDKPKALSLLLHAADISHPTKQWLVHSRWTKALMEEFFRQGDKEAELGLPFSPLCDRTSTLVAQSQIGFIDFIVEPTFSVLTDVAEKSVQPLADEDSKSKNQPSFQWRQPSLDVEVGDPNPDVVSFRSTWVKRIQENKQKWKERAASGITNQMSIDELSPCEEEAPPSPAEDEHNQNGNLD
T1 sequence (O76083 1-533 isoform O76083-2): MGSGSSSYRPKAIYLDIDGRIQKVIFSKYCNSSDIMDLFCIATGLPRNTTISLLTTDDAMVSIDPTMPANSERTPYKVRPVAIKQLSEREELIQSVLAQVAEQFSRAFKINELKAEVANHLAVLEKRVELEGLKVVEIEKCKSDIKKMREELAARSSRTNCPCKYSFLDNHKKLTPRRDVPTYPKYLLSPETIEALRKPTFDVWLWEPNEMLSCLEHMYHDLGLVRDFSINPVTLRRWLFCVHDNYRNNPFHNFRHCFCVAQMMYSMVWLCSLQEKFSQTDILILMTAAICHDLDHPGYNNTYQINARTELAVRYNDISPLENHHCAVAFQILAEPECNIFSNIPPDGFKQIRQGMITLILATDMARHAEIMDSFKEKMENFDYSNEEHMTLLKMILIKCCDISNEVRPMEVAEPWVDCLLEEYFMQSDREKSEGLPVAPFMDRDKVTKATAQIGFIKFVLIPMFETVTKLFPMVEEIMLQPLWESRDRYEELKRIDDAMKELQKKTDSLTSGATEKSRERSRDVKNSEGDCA

IC50 (PDE9A2; [1]) | PDE1A selectivity (versus PDE9A2) (PDE1A; [2]) | PDE1B selectivity (versus PDE9A2) (PDE1B; [2]) | SMILES | further results
< 1000 nM | 93 | 92 | CC1CN(Cc2cc(Cl)cc(Cl)c2)CC1c1nn2c(C3CCOCC3)ncc2c(=O)[nH]1 (single isomer, unassigned; (+)) [(+)-2-((3,4-trans)-1-(3,5-dichlorobenzyl)-4-methylpyrrolidin-3-yl)-7-(tetrahydro-2H-pyran-4-yl)imidazo[5,1-f][1,2,4]triazin-4(3H)-one] | 
< 1000 nM | 1710 | 1043 | CC1CN(Cc2cc(F)cc(F)c2)CC1c1nn2c(C3CCOCC3)ncc2c(=O)[nH]1 (single isomer, unassigned; (+)) [(+)-2-((3,4-trans)-1-(3,5-difluorobenzyl)-4-methylpyrrolidin-3-yl)-7-(tetrahydro-2H-pyran-4-yl)imidazo[1,5-f][1,2,4]triazin-4(3H)-one] | 
< 1000 nM | 612 | 1490 | CC1CN(Cc2cccc(-n3cccn3)c2)CC1c1nn2c(C3CCOCC3)ncc2c(=O)[nH]1 (single isomer, unassigned; (+)) [(+)-2-((3,4-trans)-1-(3-(1H-pyrazol-1-yl)benzyl)-4-methylpyrrolidin-3-yl)-7-(tetrahydro-2H-pyran-4-yl)imidazo[5,1-f][1,2,4]triazin-4(3H)-one] | 
< 1000 nM | 680 | 923 | CC1CN(Cc2cccc(N(C)C)c2)CC1c1nn2c(C3CCOCC3)ncc2c(=O)[nH]1 (single isomer, unassigned; (+)) [(+)-2-((3,4-trans)-1-(3-(dimethylamino)benzyl)-4-methylpyrrolidin-3-yl)-7-(tetrahydro-2H-pyran-4-yl)imidazo[5,1-f][1,2,4]triazin-4(3H)-one] | 
< 1000 nM | 243 | 92 | CC1CN(Cc2cccc(Br)c2)CC1c1nn2c(C3CCOCC3)ncc2c(=O)[nH]1 (single isomer, unassigned; (+)) [(+)-2-((3,4-trans)-1-(3-bromobenzyl)-4-methylpyrrolidin-3-yl)-7-(tetrahydro-2H-pyran-4-yl)imidazo[5,1-f][1,2,4]triazin-4(3H)-one] | 
 |  |  | CC1CN(Cc2ccc(F)c(Cl)c2)CC1c1nn2c(C3CCOCC3)ncc2c(=O)[nH]1 (single isomer, unassigned; (+)) [(+)-2-((3,4-trans)-1-(3-chloro-4-fluorobenzyl)-4-methylpyrrolidin-3-yl)-7-(tetrahydro-2H-pyran-4-yl)imidazo[5,1-f][1,2,4]triazin-4(3H)-one] | IC50 (PDE9A2; [3]): < 1000 nM; PDE1A selectivity (versus PDE9A2) (PDE1A; [4]): 604; PDE1B selectivity (versus PDE9A2) (PDE1B; [5]): 430
 |  |  | CC1CN(Cc2cc(Cl)cc(C(F)(F)F)c2)CC1c1nn2c(C3CCOCC3)ncc2c(=O)[nH]1 (single isomer, unassigned; (+)) [(+)-2-((3,4-trans)-1-(3-chloro-5-(trifluoromethyl)benzyl)-4-methylpyrrolidin-3-yl)-7-(tetrahydro-2H-pyran-4-yl)imidazo[5,1-f][1,2,4]triazin-4(3H)-one] | IC50 (PDE9A2; [3]): < 1000 nM; PDE1A selectivity (versus PDE9A2) (PDE1A; [4]): 236; PDE1B selectivity (versus PDE9A2) (PDE1B; [5]): 105
< 1000 nM | 470 | 331 | CC1CN(Cc2cccc(Cl)c2)CC1c1nn2c(C3CCOCC3)ncc2c(=O)[nH]1 (single isomer, unassigned; (+)) [(+)-2-((3,4-trans)-1-(3-chlorobenzyl)-4-methylpyrrolidin-3-yl)-7-(tetrahydro-2H-pyran-4-yl)imidazo[5,1-f][1,2,4]triazin-4(3H)-one] | 
< 1000 nM | 703 | 903 | CC1CN(Cc2cccc(C3CC3)c2)CC1c1nn2c(C3CCOCC3)ncc2c(=O)[nH]1 (single isomer, unassigned; (+)) [(+)-2-((3,4-trans)-1-(3-cyclopropylbenzyl)-4-methylpyrrolidin-3-yl)-7-(tetrahydro-2H-pyran-4-yl)imidazo[5,1-f][1,2,4]triazin-4(3H)-one] | 
< 1000 nM | 1347 | 477 | COc1cccc(CN2CC(C)C(c3nn4c(C5CCOCC5)ncc4c(=O)[nH]3)C2)c1 (single isomer, unassigned; (+)) [(+)-2-((3,4-trans)-1-(3-methoxybenzyl)-4-methylpyrrolidin-3-yl)-7-(tetrahydro-2H-pyran-4-yl)imidazo[5,1-f][1,2,4]triazin-4(3H)-one] | 
< 1000 nM | 476 | 1105 | CC1CN(Cc2ccc(Br)cc2)CC1c1nn2c(C3CCOCC3)ncc2c(=O)[nH]1 (single isomer, unassigned; (+)) [(+)-2-((3,4-trans)-1-(4-bromobenzyl)-4-methylpyrrolidin-3-yl)-7-(tetrahydro-2H-pyran-4-yl)imidazo[5,1-f][1,2,4]triazin-4(3H)-one] | 
 |  |  | CC1CN(Cc2ccc(Cl)c(C(F)(F)F)c2)CC1c1nn2c(C3CCOCC3)ncc2c(=O)[nH]1 (single isomer, unassigned; (+)) [(+)-2-((3,4-trans)-1-(4-chloro-3-(trifluoromethyl)benzyl)-4-methylpyrrolidin-3-yl)-7-(tetrahydro-2H-pyran-4-yl)imidazo[5,1-f][1,2,4]triazin-4(3H)-one] | IC50 (PDE9A2; [3]): < 1000 nM; PDE1A selectivity (versus PDE9A2) (PDE1A; [4]): 196; PDE1B selectivity (versus PDE9A2) (PDE1B; [5]): 406
< 1000 nM | 3575 | 6575 | CC1CN(Cc2ccc(Cl)c(F)c2)CC1c1nn2c(C3CCOCC3)ncc2c(=O)[nH]1 (single isomer, unassigned; (+)) [(+)-2-((3,4-trans)-1-(4-chloro-3-fluorobenzyl)-4-methylpyrrolidin-3-yl)-7-(tetrahydro-2H-pyran-4-yl)imidazo[5,1-f][1,2,4]triazin-4(3H)-one] | 
 |  |  | Cc1cc(CN2CC(C)C(c3nn4c(C5CCOCC5)ncc4c(=O)[nH]3)C2)ccc1Cl (single isomer, unassigned; (+)) [(+)-2-((3,4-trans)-1-(4-chloro-3-methylbenzyl)-4-methylpyrrolidin-3-yl)-7-(tetrahydro-2H-pyran-4-yl)imidazo[5,1-f][1,2,4]triazin-4(3H)-one] | IC50 (PDE9A2; [3]): < 1000 nM; PDE1A selectivity (versus PDE9A2) (PDE1A; [4]): 466; PDE1B selectivity (versus PDE9A2) (PDE1B; [5]): 818
< 1000 nM | 595 | 1210 | CC1CN(Cc2ccc(Cl)cc2)CC1c1nn2c(C3CCC(F)(F)CC3)ncc2c(=O)[nH]1 (single isomer, unassigned; (+)) [(+)-2-((3,4-trans)-1-(4-chlorobenzyl)-4-methylpyrrolidin-3-yl)-7-(4,4-difluorocyclohexyl)imidazo[5,1-f][1,2,4]triazin-4(3H)-one] | 
 |  |  | Cc1cc(F)ccc1-c1ncc2c(=O)[nH]c(C3CN(Cc4ccc(Cl)cc4)CC3C)nn12 (single isomer, unassigned; (+)) [(+)-2-((3,4-trans)-1-(4-chlorobenzyl)-4-methylpyrrolidin-3-yl)-7-(4-fluoro-2-methylphenyl)imidazo[5,1-f][1,2,4]triazin-4(3H)-one] | IC50 (PDE9A2; IC50 band, 4.0 μM cGMP substrate, 1 hour at R.T.): < 1000 nM; PDE1A selectivity (versus PDE9A2) (PDE1A; ratio of IC50 values PDE1A vs PDE9A2, value greater than 1 indicates greater selectivity for PDE9A2): 468; PDE1B selectivity (versus PDE9A2) (PDE1B; ratio of IC50 values PDE1B vs PDE9A2, value greater than 1 indicates greater selectivity for PDE9A2): 1106
 |  |  | Cc1ccccc1-c1ncc2c(=O)[nH]c(C3CN(Cc4ccc(Cl)cc4)CC3C)nn12 (single isomer, unassigned; (+)) [(+)-2-((3,4-trans)-1-(4-chlorobenzyl)-4-methylpyrrolidin-3-yl)-7-(o-tolyl)imidazo[5,1-f][1,2,4]triazin-4(3H)-one] | IC50 (PDE9A2; read-out: Band (PDE9A2 IC50)): < 1000 nM; PDE1A selectivity (versus PDE9A2) (PDE1A; ratio of IC50 values, PDE1A versus PDE9A2, value greater than 1 indicates greater selectivity for PDE9A2): 55; PDE1B selectivity (versus PDE9A2) (PDE1B; ratio of IC50 values, PDE1B versus PDE9A2, value greater than 1 indicates greater selectivity for PDE9A2): 109
< 1000 nM | 260 | 605 | CC1CN(Cc2ccc(C3CC3)cc2)CC1c1nn2c(C3CCOCC3)ncc2c(=O)[nH]1 (single isomer, unassigned; (+)) [(+)-2-((3,4-trans)-1-(4-cyclopropylbenzyl)-4-methylpyrrolidin-3-yl)-7-(tetrahydro-2H-pyran-4-yl)imidazo[5,1-f][1,2,4]triazin-4(3H)-one] | 
< 1000 nM | 1687 | 1097 | CC1CN(Cc2ccc(F)c(C(F)(F)F)c2)CC1c1nn2c(C3CCOCC3)ncc2c(=O)[nH]1 (single isomer, unassigned; (+)) [(+)-2-((3,4-trans)-1-(4-fluoro-3-(trifluoromethyl)benzyl)-4-methylpyrrolidin-3-yl)-7-(tetrahydro-2H-pyran-4-yl)imidazo[5,1-f][1,2,4]triazin-4(3H)-one] | 
 |  |  | CC1CN(Cc2ccc(F)cc2)CC1c1nn2c(-c3ccccc3F)ncc2c(=O)[nH]1 (single isomer, unassigned; (+)) [(+)-2-((3,4-trans)-1-(4-fluorobenzyl)-4-methylpyrrolidin-3-yl)-7-(2-fluorophenyl)imidazo[5,1-f][1,2,4]triazin-4(3H)-one] | IC50 (PDE9A2; [3]): < 1000 nM; PDE1A selectivity (versus PDE9A2) (PDE1A; ratio of IC50 values PDE1A / PDE9A2, value greater than 1 indicates greater selectivity for PDE9A2): 62; PDE1B selectivity (versus PDE9A2) (PDE1B; ratio of IC50 values PDE1B / PDE9A2, value greater than 1 indicates greater selectivity for PDE9A2): 165
